The target of one assay is T1, KRAS4B (wild type) (Homo sapiens, UniProt P01116).
T1 construct: purchased Cytoskeleton CS-RS03 (K-Ras4B); CS-SOS1-A (SOS1)
As to the kind of experiment: K-Ras Nucleotide Exchange Assay-384 (SOS Exchange Assay by Cytoskeleton, GTPx_Cyt_IC50). The format is biochemical. To be noted: 1 μM KRAS4B, 0.05 μM SOS1, 1.5 μM mant-GDP. The protocol:
Example 16. Evaluation of Biological Activities: K-Ras Nucleotide Exchange Assay-384 (SOS Exchange Assay by Cytoskeleton (GTPx_Cyt_IC50))
This assay is used to evaluate inhibitors of K-ras, by monitoring the inhibition of nucleotide exchange over time, in the presence of the protein SOS.
384-well black, untreated plates (Corning 3820 with NBS or 3821 untreated) were used. K-Ras4B Protein was used, which is wild-type (Cytoskeleton #CS-RS03) with a concnetration of 5 mg/ml, or 200 μM. Human SOS1 Protein, Exchange Domain 564-1049 (Cytoskeleton # CS-SOS1-A) was used in a concentration of 3.03 mg/ml or 50 μM. Mant-GDP triethylammonium salt solution was purchased from Sigma (catalog No. 69244). 1M stock solution of Hepes was purchased from Sigma (catalog No. H9897). 1M stock solution of MgCl2 was purchased from Sigma (catalog No. M4880). CHAPS, 3% was purchased from Sigma (catalog No. C5070). Nonidet P40 was purchased from Sigma. KOH pellets were purchased from Sigma.
K-ras buffer containing 40 mM Hepes, 10 mM MgCl2, 0.05% CHAPS, 0.01% NP40 with a pH 7.5 was prepared as follows: to a Buffer base containing 4 ml 1M Hepes, 1 ml MgCl2,
93.3 ml d-H2O, pH 7.5 (with KOH pellets), 1.7 ml 3% CHAPS was added, followed by the addition of 1 ml 1% NP40.
Final Conditions of the method included 1 μM KRAS4B (wild type), 0.05 μM SOS1, 1.5 μM mant-GDP. Reagent Preparation included: thawing aliquots of KRAS, SOS, and mant-GDP; preparing 3x KRAS (3 uM) in assay buffer; preparing 3x SOS/mant-GDP (150 nM/4.5 uM) in assay buffer; and preparing 3x compounds in assay buffer.
Assay Procedure (1536) used 3.3 μl, 3x Kras, 3.3 μl 3x compound with preincubate 0 hour, and […] 3x SOS/mant-GDP. A kinetic read measuring fluorescence at 360_450 was performed for 30 min at 30 second intervals.
Reference compound SCH 54292 (reversible inhibitor) at about 100 μM was used with no preincubation. Reagents were only stable for 45 min on ice, and therefore were prepared fresh before each assay. Partial plates (up to 9 columns) were run at a time to minimize effects due to the amount of time it takes to read a whole plate. SOS/mant-GDP were added with an automated pipettor to initiate all reactions at the same time. Assay was typically performed at 0.5% solution in DMSO (compounds prepared in 1.5% DMSO initially).
Clariostar Settings were as follows. Test Name was Kras Kinetic 360-450. Basic settings of the test included Measurement type as Fluorescence (FI), and Microplate name as Corning 3820. Plate mode settings included 61 cycles, 30 second cycle time, and 10 flashes per well. Optic settings were as follows. Excitation wavelength was 360 nm. Emission wavelength was 450 nM. Excitation bandwidth was 12 nm. Emission bandwidth was 12 nm. Dichroic filter 405 was used. D6 Well(s) was used for gain adjustment. No shaking was used. General settings were as follows. Top optic was used. Settling time was 0.1 second. Reading direction was bidirectional, horizontal left to right, and bottom to top. The target temperature was 25° C.

The target in another assay is Ras protein (Homo sapiens, UniProt P01116). As to the kind of experiment: GDPx_Icagen_IC50: SOS1-mediated guanine nucleotide exchange rate of Ras (mant-GDP). To be noted: SOS1-initiated exchange. The format is biochemical.
From the text: (§1) In some embodiments, the IC50 assay measures the reduction effect of a given compound on the guanine nucleotide-echange rate of Ras protein in the presence of guanine nucleotide exchange protein SOS1, which is a Ras activator. In the assay GDP-loaded Ras was first prepared in a buffer containing the compound at certain concentration and fluorescent guanine nucleotide (mant-GDP (used in Icagene assay) or mant-GTP (used in other IC50 assays). The guanine nucleotide exchange was initiated by the addition of the SOS1 and its rate was reflected in the rate of fluorescence change as a function of time, which was monitored by a reader. The experiment was repeated at different compound concentrations and the IC50 of the compound was defined as the compound concentration at which half of its maximal reduction effect on the guanine nucleotide exchange rate is achieved. In other embodiments, other Ras activator proteins may be used. Non-limiting examples of other Ras activator proteins include RasGRP (Ras guanyl-releasing protein).
Example 17. Evaluation of Biological Activities: GDPx_Icagen_ICso
as §1, with “The IC50” for “In some embodiments, the IC50”, “guanine nucleotide-exchange” for “guanine nucleotide-echange”, “Ras is” for “Ras was”, “nucleotide (mant-GDP).” for “nucleotide (mant-GDP (used in Icagene assay) or mant-GTP (used in other IC50 assays).”, “achieved.” for “achieved. In other embodiments, other Ras activator proteins may be used. Non-limiting examples of other Ras activator proteins include RasGRP (Ras guanyl-releasing protein).”

In general, IC50 refers to the concentration that gives 50% inhibition. A high value points to weaker potency.

The structures appear in SMILES notation.

T1 sequence (P01116 1-188 isoform P01116-2): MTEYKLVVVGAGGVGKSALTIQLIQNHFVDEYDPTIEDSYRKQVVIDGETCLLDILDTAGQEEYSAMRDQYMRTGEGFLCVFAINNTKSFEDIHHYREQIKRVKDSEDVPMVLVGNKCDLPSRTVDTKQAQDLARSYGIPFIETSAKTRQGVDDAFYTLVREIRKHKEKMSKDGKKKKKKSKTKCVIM
Ras protein, sequence (P01116 1-188 isoform P01116-2): as above

Consider `O=c1cc(CSc2ncccn2)[nH]n1-c1nc2ccccc2[nH]1` [Compound 156, 2-(1H-benzo[d]imidazol-2-yl)-5-((pyrimidin-2-ylthio)methyl)-1,2-dihydro-3H-pyrazol-3-one], for which the IC50 was determined as 7000 nM on KRAS4B (wild type) and 3000 nM on Ras protein.

Regarding `Cc1ccnc(-n2[nH]c(CSc3ccccc3)cc2=O)c1` [Compound 174, 2-(4-methylpyridin-2-yl)-5-((phenylthio)methyl)-1,2-dihydro-3H-pyrazol-3-one], the IC50 at KRAS4B (wild type) worked out at 2700 nM; on Ras protein, 9300 nM.

Turning to `O=c1cc(CSc2cccc(Cl)c2)[nH]n1-c1nc2ccccc2[nH]1` [Compound 171, 2-(1H-benzo[d]imidazol-2-yl)-5-(((3-chlorophenyl)thio)methyl)-1,2-dihydro-3H-pyrazol-3-one], the IC50 against KRAS4B (wild type) was 100000 nM; at Ras protein, 170 nM.

Consider `O=c1cc(CSc2nc(-c3ccccc3)cs2)[nH]n1-c1nc2ccccc2[nH]1` [Compound 151, 2-(1H-benzo[d]imidazol-2-yl)-5-(((4-phenylthiazol-2-yl)thio)methyl)-1,2-dihydro-3H-pyrazol-3-one], for which the IC50 on KRAS4B (wild type) and against Ras protein was 400 nM in each case.

For `[N-]=[N+]=NCc1ccc(SCc2cc(=O)n(-c3nc4ccccc4[nH]3)[nH]2)cc1` [Compound 162, 5-(((4-(azidomethyl)phenyl)thio)methyl)-2-(1H-benzo[d]imidazol-2-yl)-1,2-dihydro-3H-pyrazol-3-one], the 50% inhibitory concentration (IC50) worked out at 1400 nM at KRAS4B (wild type) and 100000 nM against Ras protein.

For `O=c1cc(CSc2ccc(Cl)c(Cl)c2)[nH]n1-c1nc2ccccc2[nH]1` [Compound 172, 2-(1H-benzo[d]imidazol-2-yl)-5-(((3,4-dichlorophenyl)thio)methyl)-1,2-dihydro-3H-pyrazol-3-one], the results for the IC50 against KRAS4B (wild type) and against Ras protein were 800 nM and 200 nM, respectively.

As for `N#Cc1cccc(SCc2cc(=O)n(-c3nc4ccccc4[nH]3)[nH]2)c1` [Compound 173, 3-(((1-(1H-benzo[d]imidazol-2-yl)-5-oxo-2,5-dihydro-1H-pyrazol-3-yl)methyl)thio)benzonitrile], the IC50 against KRAS4B (wild type) was 100000 nM; at Ras protein it was 500 nM.

Take `Cc1ccc(-n2[nH]c(CSc3ccccc3)cc2=O)nc1` [Compound 140, 2-(5-methylpyridin-2-yl)-5-((phenylthio)methyl)-1H-pyrazol-3(2H)-one]: the IC50 came out at 30800 nM against KRAS4B (wild type) and 1600 nM at Ras protein.

On to `O=c1cc(CSc2nnc(-c3ccccc3)o2)[nH]n1-c1nc2ccccc2[nH]1` [Compound 153, 2-(1H-benzo[d]imidazol-2-yl)-5-(((5-phenyl-1,3,4-oxadiazol-2-yl)thio)methyl)-1,2-dihydro-3H-pyrazol-3-one], for which the results for the IC50 against KRAS4B (wild type) and against Ras protein were 800 nM and 2000 nM, respectively.

For the compound `O=c1cc(CSc2ccccn2)[nH]n1-c1nc2ccccc2s1` [Compound 185, 2-(benzo[d]thiazol-2-yl)-5-((pyridin-2-ylthio)methyl)-1,2-dihydro-3H-pyrazol-3-one], the IC50 was 340000 nM at KRAS4B (wild type) and 5900 nM at Ras protein.

As for `O=c1cc(CSc2cc(Cl)cc(Cl)c2)[nH]n1-c1nc2ccccc2[nH]1` [Compound 175, 2-(1H-benzo[d]imidazol-2-yl)-5-(((3,5-dichlorophenyl)thio)methyl)-1,2-dihydro-3H-pyrazol-3-one], at Ras protein, 63 nM corresponded to half-maximal inhibition (IC50).

`Cc1cc(C)nc(SCc2cc(=O)n(-c3ccc(C(F)(F)F)cn3)[nH]2)n1` [Compound 157, 5-(((4,6-dimethylpyrimidin-2-yl)thio)methyl)-2-(5-(trifluoromethyl)pyridin-2-yl)-1,2-dihydro-3H-pyrazol-3-one] came in with a half-inhibitory concentration (IC50) at KRAS4B (wild type) of 17600 nM.

Turning to `NC(=O)c1ccc(SCc2cc(=O)n(-c3nc4ccccc4[nH]3)[nH]2)cc1` [Compound 178, 4-(((1-(1H-benzo[d]imidazol-2-yl)-5-oxo-2,5-dihydro-1H-pyrazol-3-yl)methyl)thio)benzamide], at Ras protein, the IC50 stood at 320 nM. This lies in the sub-micromolar range.

Compound `Cc1cc(C)nc(SCc2cc(=O)n(-c3nc4ccc(Br)cc4s3)[nH]2)n1` [Compound 155, 2-(6-bromobenzo[d]thiazol-2-yl)-5-(((4,6-dimethylpyrimidin-2-yl)thio)methyl)-1,2-dihydro-3H-pyrazol-3-one] had an IC50 against KRAS4B (wild type) of 12800 nM. This counts as double-digit micromolar.

`O=c1cc(CSc2ccccc2)[nH]n1-c1cc(Br)ccn1` [Compound 176, 2-(4-bromopyridin-2-yl)-5-((phenylthio)methyl)-1,2-dihydro-3H-pyrazol-3-one] showed a 50% inhibitory concentration (IC50) on Ras protein of 6000 nM.

In turn, `Cc1csc(SCc2cc(=O)n(-c3ccccn3)[nH]2)n1` [Compound 182, 5-(((4-methylthiazol-2-yl)thio)methyl)-2-(pyridin-2-yl)-1,2-dihydro-3H-pyrazol-3-one] returned an IC50 against Ras protein of 3200 nM. This IC50 lies about 1.9-fold lower than the previous one.

In turn, `O=c1cc(CSc2ccc(Br)cn2)[nH]n1-c1ccccn1` [Compound 160, 5-(((5-bromopyridin-2-yl)thio)methyl)-2-(pyridin-2-yl)-1,2-dihydro-3H-pyrazol-3-one] displayed an IC50 at KRAS4B (wild type) of 7400 nM. This lies in the single-digit micromolar range.

The compound `O=c1cc(CSc2nc(Cc3ccccc3)cs2)[nH]n1-c1nc2ccccc2[nH]1` [Compound 180, 2-(1H-benzo[d]imidazol-2-yl)-5-(((4-benzylthiazol-2-yl)thio)methyl)-1,2-dihydro-3H-pyrazol-3-one] showed an IC50 on Ras protein of 200 nM.

`O=c1cc(CSCc2ccc(F)cc2)[nH]n1-c1ccccn1` [Compound 161, 5-(((4-fluorobenzyl)thio)methyl)-2-(pyridin-2-yl)-1,2-dihydro-3H-pyrazol-3-one] yielded an IC50 against KRAS4B (wild type) of 2700 nM.

Take `O=c1cc(CSc2ccccc2)[nH]n1-c1ncc[nH]1` [Compound 179, 2-(1H-imidazol-2-yl)-5-((phenylthio)methyl)-1,2-dihydro-3H-pyrazol-3-one]: on Ras protein, the half-inhibitory concentration (IC50) came out at 4500 nM.

In the case of `O=c1cc(CSc2cccnc2)[nH]n1-c1nc2ccccc2[nH]1` [Compound 181, 2-(1H-benzo[d]imidazol-2-yl)-5-((pyridin-3-ylthio)methyl)-1,2-dihydro-3H-pyrazol-3-one], the IC50 against Ras protein amounted to 2500 nM. This IC50 lies about 1.8-fold lower than the previous one.

`CCc1csc(SCc2cc(=O)n(-c3nc4ccccc4[nH]3)[nH]2)n1` [Compound 139, 2-(1H-benzo[d]imidazol-2-yl)-5-(((4-ethylthiazol-2-yl)thio)methyl)-1H-pyrazol-3(2H)-one] came in with an IC50 against Ras protein of 50 nM.

In the case of `O=c1cc(CSc2nc3cccnc3s2)[nH]n1-c1nc2ccccc2[nH]1` [Compound 177, 2-(1H-benzo[d]imidazol-2-yl)-5-((thiazolo[5,4-b]pyridin-2-ylthio)methyl)-1,2-dihydro-3H-pyrazol-3-one], the IC50 at Ras protein came out at 400 nM.

The values are drawn from patent US20200308165A1, “Compounds as Ras Inhibitors and Use Thereof” (D.E. Shaw Research, LLC, priority 2017, published 2020).
